Data on 26 compounds can be found in patent publication US7893066B2, “Pyridol[2,3-B]pyrazinones for use as stearoyl CoA desaturase inhibitors” (Gilead Palo Alto, Inc., priority 2006, dated 2011).

In general, IC50 refers to the concentration that inhibits the measured activity by half.

The target in the test is T1, stearoyl-CoA desaturase (SCD) (Rattus norvegicus, UniProt P07308).
T1 construct: from tissue; host or cells: liver microsomes of male Sprague Dawley rats, with SCD induced by a carbohydrate-rich diet
T1 sequence (P07308 1-358): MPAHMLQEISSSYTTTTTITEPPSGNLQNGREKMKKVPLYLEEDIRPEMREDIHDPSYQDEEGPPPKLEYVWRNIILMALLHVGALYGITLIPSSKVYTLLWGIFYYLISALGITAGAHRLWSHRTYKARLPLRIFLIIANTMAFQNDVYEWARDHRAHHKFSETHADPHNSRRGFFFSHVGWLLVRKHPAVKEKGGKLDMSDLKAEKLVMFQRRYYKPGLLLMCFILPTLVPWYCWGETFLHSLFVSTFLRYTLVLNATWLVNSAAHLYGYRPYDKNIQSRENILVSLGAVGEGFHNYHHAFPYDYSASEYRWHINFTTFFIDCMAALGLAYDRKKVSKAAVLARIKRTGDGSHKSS
In words: SCD assay, rat liver microsomes with [3H]stearoyl CoA (adapted from Talamo and Bloch). It counts as biochemical. Particulars: second table, same SCD assay. An excerpt: The identification of compounds of the invention as SCD inhibitors was readily accomplished using the SCD enzyme and microsomal assay procedure described in Talamo and Bloch (1969) Analytical Biochemistry 29:300-304.
The rat liver microsomes were collected according to the procedure described in Ozols (1990) Methods Enzm, 182:225.
Male Spraque Dawley Rats were placed on regimented fasting protocol for one week to stimulate SCD enzymatic activity. 48-hour periods were alternated between feeding and fasting to induce and down-regulate SCD activity with SCD activity being induced via carbohydrate rich diet prior to liver perfusion and collection.
The rats were anesthetized with Isoflurane inhalation anesthetic, the liver perfused with cold phosphate buffered saline (PBS), weighed, and chilled in cold homogenization buffer (250 mM sucrose, 10 mM Tris, 1 mM EDTA, pH 7.6.
The livers were finely minced and placed in homogenization tube. 40 mL of homogenization buffer was added to the homogenization tube and the liver homogenized and centrifuged in a pre-chilled SLA-600 TC at 800G rotor for 10 min at 4° C.
Following centrifugation, the supernatant was collected and the pellet removed and discarded. This supernatant was then centrifuged at 10,000G for 35 minutes. Following centrifugation, the supernatant was collected and the pellet discarded. The supernatant was further centrifuged in a pre-chilled 45-Ti rotor at 130,000 G (41,000 RPM) for 90 minutes at 4° C.
The supernatant was then aspirated off and the collected microsomal pellet washed in 25 mL of Glycerol PBS (1×PBS 7.4, 20% Glycerol) and resuspended in 4-5 volumes of Glycerol PBS.
The protein concentration of the microsomal preparation was determined by BCA assay (Pierce) and the microsomes were aliquoted and stored at −80° C.
Biobeads were ground to a smaller size in a mortar and pestle and filtered through 300 μM mesh and then resuspended in 3.6% TCA.
SCD was determined in the desaturase assay buffer. This assay buffer contained 0.1 M Tris buffer, pH 7.2, 2 mM NADH, 4.8 mM ATP, 0.5 mM CoA, 4.8 mM MgCl2, and 0.1% BSA.
1 μl of each compound of Formula I was added to an assay plate by a low volume (0.5-10 μL) multichannel pipette. A DMSO control was also prepared. The microsomes were quickly thawed and added to assay buffer so that a concentration of 1-0.1 mg/ml was achieved (0.5-0.05 mg/ml assay final). 50 μl of the microsome suspension in assay buffer was then added into each well in the compound assay plate, the plate was covered, and the microsomes preincubated with the compounds for 30-60 minutes on the orbital shaker, 50-75 rpm, at room temperature.
After preincubation, the reaction was initiated by the addition of 50 μl of substrate solution (20 μM Stearoyl CoA, [3H]Stearoyl CoA, 74nCi) to the preincubated microsomes/compound suspensions in MilliQ (Millipore) H2O. The reaction mixtures were then incubated for 45 minutes on the orbital shaker at 50-75 rpm at room temperature.
The reaction was terminated by the addition of 10 μl of 21% trichloroacetic acid (TCA) to the reaction mixture followed incubation on the orbital shaker for 30 minutes at 50-75 rpm at room temperature followed by centrifugation for 5 minutes at 3700 rpm.
50 μl of a 6% Bio-Bead suspension in H2O was added to the reaction mixture and the assay plate was sealed. The Bio-Bead mixture was incubated on the orbital shaker for 1 to 24 hours, 100-150 rpm at room temperature, and then the mixture was centrifuged at 2000g for 5 minutes to pellet the Bio-Beads.
25 μl of the supernatant was harvested from each well and transferred to a detection plate. 100 μl of OptiPhase SuperMix scinitillation cocktail (containing sufficient NaOH to neutralize the TCA) was added and the solutions mixed by vigorous shaking (300-400 rpm) for 5 minutes at room temperature.
“2,3-dihydroxy-N-(2-(3-methyl-2-oxo-7-(3-(trifluoromethyl)benzylamino)quinoxalin-1(2H)-yl)ethyl)propanamide [compound 52]” displayed an IC50 of 360 nM. For “3-(2-(4-(2-methoxyethoxy)phenyl)-3-oxo-6-(3-(trifluoromethyl)benzylamino)pyrido[2,3-b]pyrazin-4(3H)-yl)propanamide [compound 30]”, the IC50 came to 190 nM. Compound “3-(2-(4-ethylphenyl)-3-oxo-6-(3-(trifluoromethyl)benzylamino)pyrido[2,3-b]pyrazin-4(3H)-yl)propanamide [compound 29]” displayed an IC50 of 150 nM. In turn, “3-(2-(4-methoxyphenyl)-3-oxo-6-(3-(trifluoromethyl)benzylamino)pyrido[2,3-b]pyrazin-4(3H)-yl)propanamide [compound 6]” came in with a half-maximal inhibitory concentration (IC50) of 35 nM.

“3-(3-oxo-2-(4-propylphenyl)-6-(3-(trifluoromethyl)benzylamino)pyrido[2,3-b]pyrazin-4(3H)-yl)propanamide [compound 31]” came in with an IC50 of 380 nM. Compound “3-(3-oxo-6-(3-(trifluoromethyl)benzylamino)-2-(4-(trifluoromethyl)phenyl)pyrido[2,3-b]pyrazin-4(3H)-yl)propanamide [compound 38]” came in with an IC50 of 130 nM.

Compound “3-(6-(3,4-dichlorobenzylamino)-2-(4-methoxyphenyl)-3-oxopyrido[2,3-b]pyrazin-4(3H)-yl)-N-methylpropanamide [compound 12]” had an IC50 of 95 nM.

For the compound “4-(2-(4-methoxyphenyl)-3-oxo-6-(3-(trifluoromethyl)benzylamino)pyrido[2,3-b]pyrazin-4(3H)-yl)butanamide [compound 35]”, half-maximal inhibition (IC50) was put at 150 nM. Take `COc1ccc(-c2nc3ccc(NCc4ccc(Cl)c(Cl)c4)nc3n([C@H]3CCNC3)c2=O)cc1` [compound 2, (S)-6-(3,4-dichlorobenzylamino)-2-(4-methoxyphenyl)-4-(pyrrolidin-3-yl)pyrido[2,3-b]pyrazin-3(4H)-one]: the IC50 was determined as 1800 nM.

`COc1ccc(-c2nc3ccc(NCc4cccc(C(F)(F)F)n4)nc3n(CCNC(C)=O)c2=O)cc1` [compound 3, N-(2-(2-(4-methoxyphenyl)-3-oxo-6-((6-(trifluoromethyl)pyridin-2-yl)methylamino)pyrido[2,3-b]pyrazin-4(3H)-yl)ethyl)acetamide] gave an IC50 of 10000 nM.

For the compound `COc1ccc(-c2nc3ccc(NCc4cc(C(F)(F)F)ccn4)nc3n(CCNC(C)=O)c2=O)cc1` [compound 4, N-(2-(2-(4-methoxyphenyl)-3-oxo-6-((4-(trifluoromethyl)pyridin-2-yl)methylamino)pyrido[2,3-b]pyrazin-4(3H)-yl)ethyl)acetamide], half-maximal inhibition (IC50) was put at 180 nM.

As to `COc1ccc(-c2nc3ccc(NCc4ccc(Cl)c(Cl)c4)nc3n(C(C)CC(N)=O)c2=O)cc1` (centres unmarked) [compound 5, 3-(6-(3,4-dichlorobenzylamino)-2-(4-methoxyphenyl)-3-oxopyrido[2,3-b]pyrazin-4(3H)-yl)butanamide], the IC50 amounted to 53 nM. In turn, `CC(=O)NCCn1c(=O)cnc2ccc(NCc3cccc(C(F)(F)F)c3)nc21` [compound 7, N-(2-(3-oxo-6-(3-(trifluoromethyl)benzylamino)pyrido[2,3-b]pyrazin-4(3H)-yl)ethyl)acetamide] returned an IC50 of 220 nM. For `COc1ccc(-c2nc3ccc(NCc4ccccc4)nc3n(CCNC(C)=O)c2=O)cc1` [compound 8, N-(2-(6-(benzylamino)-2-(4-methoxyphenyl)-3-oxopyrido[2,3-b]pyrazin-4(3H)-yl)ethyl)acetamide] the value was 840 nM. As to `COc1ccc(-c2nc3ccc(NCc4cccnc4)nc3n(CCNC(C)=O)c2=O)cc1` [compound 9, N-(2-(2-(4-methoxyphenyl)-3-oxo-6-(pyridin-3-ylmethylamino)pyrido[2,3-b]pyrazin-4(3H)-yl)ethyl)acetamide], the IC50 was found to be 30000 nM.

Turning to `COc1ccc(-c2nc3ccc(NCc4cccc(F)c4)nc3n(CCNC(C)=O)c2=O)cc1` [compound 10, N-(2-(6-(3-fluorobenzylamino)-2-(4-methoxyphenyl)-3-oxopyrido[2,3-b]pyrazin-4(3H)-yl)ethyl)acetamide], the IC50 turned out to be 18000 nM. Compound `COc1ccc(-c2nc3ccc(NCc4ccc(Cl)c(Cl)c4)nc3n(CCCC(N)=O)c2=O)cc1` [compound 11, 4-(6-(3,4-dichlorobenzylamino)-2-(4-methoxyphenyl)-3-oxopyrido[2,3-b]pyrazin-4(3H)-yl)butanamide] displayed an IC50 of 150 nM. Compound `CC(=O)NCCn1c(=O)cnc2ccc(NCc3ccc(Cl)c(Cl)c3)nc21` [compound 14, N-(2-(6-(3,4-dichlorobenzylamino)-3-oxopyrido[2,3-b]pyrazin-4(3H)-yl)ethyl)acetamide] had an IC50 of 510 nM.

`COC(=O)c1cccc(CNc2ccc3nc(-c4ccc(OC)cc4)c(=O)n(CCNC(C)=O)c3n2)c1` [compound 15, methyl 3-((4-(2-acetamidoethyl)-2-(4-methoxyphenyl)-3-oxo-3,4-dihydropyrido[2,3-b]pyrazin-6-ylamino)methyl)benzoate] displayed an IC50 of 19000 nM. As for `CONC(=O)CCn1c(=O)c(-c2ccc(OC)cc2)nc2ccc(NCc3cccc(C(F)(F)F)c3)nc21` [compound 16, N-methoxy-3-(2-(4-methoxyphenyl)-3-oxo-6-(3-(trifluoromethyl)benzylamino)pyrido[2,3-b]pyrazin-4(3H)-yl)propanamide], the IC50 came to 930 nM. Turning to `CCOC(=O)c1nc2ccc(NCc3cccc(C(F)(F)F)c3)nc2n(CCNC(C)=O)c1=O` [compound 17, ethyl 4-(2-acetamidoethyl)-3-oxo-6-(3-(trifluoromethyl)benzylamino)-3,4-dihydropyrido[2,3-b]pyrazine-2-carboxylate], the IC50 is 6700 nM. `COc1ccc(-c2nc3ccc(NCc4cccc(C)c4)nc3n(CCNC(C)=O)c2=O)cc1` [compound 18, N-(2-(2-(4-methoxyphenyl)-6-(3-methylbenzylamino)-3-oxopyrido[2,3-b]pyrazin-4(3H)-yl)ethyl)acetamide] displayed an IC50 of 380 nM.

`CNC(=O)CCn1c(=O)c(-c2ccc(OC)cc2)nc2ccc(NCc3cccc(C(F)(F)F)c3)nc21` [compound 19, 3-(2-(4-methoxyphenyl)-3-oxo-6-(3-(trifluoromethyl)benzylamino)pyrido[2,3-b]pyrazin-4(3H)-yl)-N-methylpropanamide] registered an IC50 of 360 nM. With `COc1ccc(-c2nc3ccc(NCc4cccc(OC(F)(F)F)c4)nc3n(CCNC(C)=O)c2=O)cc1` [compound 20], the IC50 was 260 nM. Take `COc1ccc(-c2nc3ccc(NCc4cc(C(F)(F)F)ccc4F)nc3n(CCNC(C)=O)c2=O)cc1` [compound 21, N-(2-(6-(2-fluoro-5-(trifluoromethyl)benzylamino)-2-(4-methoxyphenyl)-3-oxopyrido[2,3-b]pyrazin-4(3H)-yl)ethyl)acetamide]: half-maximal inhibition (IC50) was put at 1500 nM. For `COCCOc1ccc(-c2nc3ccc(NCc4cccc(C(F)(F)F)c4)nc3n(CCNC(C)=O)c2=O)cc1` [compound 23, N-(2-(2-(4-(2-methoxyethoxy)phenyl)-3-oxo-6-(3-(trifluoromethyl)benzylamino)pyrido[2,3-b]pyrazin-4(3H)-yl)ethyl)acetamide] the value was 230 nM.
